Our source for the EC50 values is BindingDB's records for doi:10.7270/Q2R78CMH (Sanford-Burnham Center for Chemical Genomics, 2008).

Molecules are shown by their SMILES.

In this assay the target is T1, Bcl-2-like protein 10 (Homo sapiens, UniProt Q9HD36).
T1 sequence (Q9HD36 whole entry): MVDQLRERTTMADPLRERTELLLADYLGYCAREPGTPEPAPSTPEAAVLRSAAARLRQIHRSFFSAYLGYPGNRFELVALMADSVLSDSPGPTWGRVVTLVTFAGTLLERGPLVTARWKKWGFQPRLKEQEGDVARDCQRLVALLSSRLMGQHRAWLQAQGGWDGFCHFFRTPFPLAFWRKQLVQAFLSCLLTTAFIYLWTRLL
The experiment in a line: Biochemical fluorescence polarization EC50 measurement of human Bcl-2-like protein 10 inhibition, TR3-derived (AID 1243). A general note: Polarisation of emitted light reports the rotation of a fluorescent probe.

One may read the EC50 as the concentration at which the effect is half-maximal. A lower EC50 goes with an effect from little substance. In the case of `C=c1c(C#N)c2[nH]c(N)c(C#N)c(C)c-2c1=Cc1ccc(-c2ccc(C(=O)O)c(Cl)c2)o1`, the response was half-maximal at 1.65 µM (EC50).

In the case of `O=C(O)c1cccc(-c2ccc(CN=Nc3ccc([N+](=O)[O-])cn3)o2)c1`, the EC50 was found to be 9.64 µM.

For the molecule `Clc1ccc(C2CC(c3ccccc3)=Nc3ncnn32)cc1` (stereo unspecified) [7-(4-chlorophenyl)-5-phenyl-1,7-dihydro-[1,2,4]triazolo[1,5-a]pyrimidine], it took 14.2 µM to reach a half-maximal effect (EC50).

In the case of `COc1ccccc1NC(=O)C1=C(C)N=C(SCC(=O)c2ccc(Br)cc2)C(C#N)C1c1ccco1` (stereo unspecified) [BIM-0025022.P001], a half-maximal response (EC50) required 6.24 µM. This EC50 is about 2.3-fold lower than that of the molecule before.

Molecule `O=C1c2ccccc2C(O)C12N=Nc1n[nH]c(=S)n1N2` (stereo unspecified) [BIM-0026580.P001] had an EC50 of 23.8 µM.

In turn, `O=C1C=CC(=O)C(C(C=NCc2ccccc2)[N+](=O)[O-])=C1` (stereo unspecified) [BIM-0048185.P001] had an EC50 of 5.7 µM. Against the preceding molecule, the EC50 is about 4.2-fold lower.
